US20100331357A1, “PHARMACEUTICAL COMPOSITION” (TAKEDA PHARMACEUTICAL COMPANY LIMITED, priority 2008, published 2010)

Assays:
Type in all cases: physicochemical
[1] = Solubility by eye observation with stepwise addition of solution; details: thermodynamic from solid
Description: (§1) Each of the solutions (0.1 mL) shown in Table 1 was added to compound A1 hydrochloride (about 2 mg), and solubility was confirmed with eye observation. When insoluble materials were recognized, the solution (0.1 mL) was further added, and solubility was confirmed by eye observation in the same manner. When insoluble materials were still recognized, the solution was thereafter added in the amounts of 0.05 mL, 0.15 mL, 0.4 mL, 0.4 mL, 0.4 mL and 0.4 mL, respectively in this order, and solubility was confirmed by eye observation. The concentration of the compound A1 hydrochloride determined from the total amount of the solution added up to the time point at which insoluble materials were not recognized, was taken as the solubility.
as §1, with “Table 2” for “Table 1”
as §1, with “Table 3” for “Table 1”
as §1, with “Table 4” for “Table 1”

[2] = Saturation solubility, shaken 18 hours at 25° C., filtered, HPLC; details: thermodynamic from solid, 40 mM Citric acid
Description: To each of the various solutions shown in Table 5, compound A1 hydrochloride was added in an amount exceeding the saturation concentration, and the mixture was shaken for 18 hours at 25° C.

[3] = Saturation solubility, shaken 18 hours at 5° C., filtered, HPLC; details: thermodynamic from solid, 40 mM Citric acid, NaOH, as free form
Description: To each of the various solutions shown in Table 6, compound A1 hydrochloride was added in an amount exceeding the saturation concentration, and the mixture was shaken for 18 hours at 5° C.

SMILES: CCS(=O)(=O)c1cccc(-c2cc(C(=O)NC3CCN(C)CC3)c(C)c3[nH]c4ncc(C)cc4c23)c1.Cl [compound A1 hydrochloride, 5-(3-(ethylsulfonyl)phenyl)-3,8-dimethyl-N-(1-methylpiperidin-4-yl)-9H-pyrido[2,3-b]indole-7-carboxamide hydrochloride]
- solubility ([1]; 5 w/v % D-mannitol in water for injection, saline or isotonic): ~1100 µg/mL
- solubility ([1]; 5 w/v % D-sorbitol in water for injection, saline or isotonic): ~1300 µg/mL
- solubility ([1]; 5 w/v % glucose in water for injection, saline or isotonic): ~1300 µg/mL
- solubility ([1]; 10 w/v % Dextran 40 in water for injection, aqueous with cosolvent or surfactant or cyclodextrin): < 1300 µg/mL
- solubility ([1]; 10 w/v % Polysorbate 20 in water for injection, aqueous with cosolvent or surfactant or cyclodextrin): ~1800 µg/mL
- solubility ([1]; 10 w/v % Polysorbate 80 in water for injection, aqueous with cosolvent or surfactant or cyclodextrin): ~2200 µg/mL
- solubility ([1]; 10 w/v % maltose in water for injection, saline or isotonic): ~1400 µg/mL
- solubility ([1]; 10 w/v % sucrose in water for injection, saline or isotonic): ~1200 µg/mL
- solubility ([1]; 30 w/v % maltosyl-β-cyclodextrin in water for injection, aqueous with cosolvent or surfactant or cyclodextrin): ~10800 µg/mL
- solubility ([1]; aqueous with cosolvent or surfactant or cyclodextrin, 30 w/v % 2-Hydroxypropyl-β-cyclodextrin in water for injection): ~10400 µg/mL
- solubility ([1]; aqueous with cosolvent or surfactant or cyclodextrin, 30 w/v % Sulfobutyl ether-β-cyclodextrin sodium salt (Captisol, clinical grade) in water for injection): ~9200 µg/mL
- solubility ([1]; citric acid buffer solution, pH 2, aqueous buffer, 100 mM Citric acid buffer solution pH 2): ~2100 µg/mL
- solubility ([1]; citric acid buffer solution, pH 3, aqueous buffer, 100 mM Citric acid buffer solution pH 3): ~1000 µg/mL
- solubility ([1]; citric acid buffer solution, pH 4, aqueous buffer, 100 mM Citric acid buffer solution pH 4): < 1300 µg/mL
- solubility ([1]; citric acid buffer solution, pH 5, aqueous buffer, 100 mM Citric acid buffer solution pH 5): < 1300 µg/mL
- solubility ([1]; citric acid buffer solution, pH 7, aqueous buffer, 100 mM Citric acid buffer solution pH 7): < 1200 µg/mL
- solubility ([1]; citric acid buffer solution, pH 9, aqueous buffer, 100 mM Citric acid buffer solution pH 9): < 1200 µg/mL
- solubility ([1]; citric acid buffer solutions, aqueous buffer, citric acid buffer solutions of Table 1): < 8000 µg/mL
- solubility ([1]; cyclodextrin derivative solutions, aqueous with cosolvent or surfactant or cyclodextrin, all cyclodextrin derivative solutions shown in Table 4): ≥ 8000 µg/mL
- solubility ([1]; ethanol, organic solvent or mixture, 100 w/v % Ethanol): < 1200 µg/mL
- solubility ([1]; polyethylene glycol 300, organic solvent or mixture, 100 w/v % Polyethylene glycol 300): < 1100 µg/mL
- solubility ([1]; polyethylene glycol 400, organic solvent or mixture, 100 w/v % Polyethylene glycol 400): < 1300 µg/mL
- solubility ([1]; solutions of solubilizers, aqueous with cosolvent or surfactant or cyclodextrin, solutions of solubilizers in Table 3): < 8000 µg/mL
- solubility ([1]; solutions of sugars, saline or isotonic, solutions of sugars in Table 2): < 8000 µg/mL
- solubility ([1]; soybean oil, oil or lipid, 100 w/v % Soybean oil): < 1200 µg/mL
- solubility ([1]; water for injection, water): < 1200 µg/mL
- solubility at 18 h ([2]; aqueous with cosolvent or surfactant or cyclodextrin, 5 w/v % Sulfobutyl ether-β-cyclodextrin sodium salt (Captisol, research grade), HCl, pH 2.5, as free form): 29200 µg/mL
- solubility at 18 h ([2]; aqueous with cosolvent or surfactant or cyclodextrin, 5 w/v % Sulfobutyl ether-β-cyclodextrin sodium salt (Captisol, research grade), NaOH, pH 4, as free form): 24500 µg/mL
- solubility at 18 h ([2]; aqueous with cosolvent or surfactant or cyclodextrin, 5 w/v % Sulfobutyl ether-β-cyclodextrin sodium salt (Captisol, research grade), NaOH, pH 5, as free form): 22900 µg/mL
- solubility at 18 h ([2]; citric acid solution in water for injection, aqueous buffer, water for injection, HCl, pH 2.5, as compound A1 (free form)): 8000 µg/mL
- solubility at 18 h ([2]; citric acid solution in water for injection, aqueous buffer, water for injection, NaOH, pH 4, as free form): 300 µg/mL
- solubility at 18 h ([2]; citric acid solution in water for injection, aqueous buffer, water for injection, NaOH, pH 5, as free form): 100 µg/mL
- solubility at 18 h ([3]; citric acid solution in water for injection, pH 4, aqueous buffer, water for injection): 100 µg/mL
- solubility at 18 h ([3]; pH 4, aqueous with cosolvent or surfactant or cyclodextrin, 2.5 w/v % Sulfobutyl ether-β-cyclodextrin sodium salt): 13000 µg/mL
- solubility at 18 h ([3]; pH 4, aqueous with cosolvent or surfactant or cyclodextrin, 5 w/v % Sulfobutyl ether-β-cyclodextrin sodium salt): 20900 µg/mL
- solubility at 18 h ([3]; pH 4, aqueous with cosolvent or surfactant or cyclodextrin, 7.5 w/v % Sulfobutyl ether-β-cyclodextrin sodium salt): 27600 µg/mL
- solubility at 18 h ([3]; pH 4, aqueous with cosolvent or surfactant or cyclodextrin, 10 w/v % Sulfobutyl ether-β-cyclodextrin sodium salt): 32800 µg/mL
- solubility at 18 h ([3]; pH 4, aqueous with cosolvent or surfactant or cyclodextrin, 12 w/v % Sulfobutyl ether-β-cyclodextrin sodium salt): 35400 µg/mL
- solubility at 18 h ([3]; pH 4, aqueous with cosolvent or surfactant or cyclodextrin, 20 w/v % Sulfobutyl ether-β-cyclodextrin sodium salt): 43600 µg/mL
- solubility at 18 h ([3]; pH 4, aqueous with cosolvent or surfactant or cyclodextrin, 30 w/v % Sulfobutyl ether-β-cyclodextrin sodium salt): 49900 µg/mL
